Measured values: patent publication US20090047742A1 (priority 2005, published 2009)

Columns and labels:
[1] = system: 28S and 18S ribosomal RNA; test: ribosomal RNA by agarose-formaldehyde gel electrophoresis and ethidium bromide staining; format: cell-based, human; conditions: MazF expressed for 72 hours, T-Rex-293 cells
Experimental: Total RNA from Tet-treated or -untreated T-Rex-293 cells at the indicated time points was probed with ^32P-labeled human GAPDH and β-actin cDNA. 28S and 18S ribosomal RNAs were visualized by agarose-formaldehyde gel electrophoresis followed by ethidium bromide staining. […] Human GAPDH and β-actin mRNA levels were quantified by real-time RT-PCR. Relative amounts of mRNA were calculated from the fluorescence signal in the 24-, 48- and 72-hours samples as compared with the corresponding 0-hour sample.

T-Rex-293 cells [2] = test: FACS analysis of propidium iodide labeling (sub-G1 peak); format: cell-based, human; conditions: T-Rex-293 (mazF/pcDNA3), 72 hours of Tet induction
Experimental: T-Rex-293 (mazF/pcDNA3) cells and T-Rex-293 (mazF/mazE) cells treated with tetracycline for 0, 24, 48 and 72 hr were harvested by trypsinization, pelleted by centrifugation and resuspended in PBS. The cells were fixed with ice-cold 70% ethanol for 30 min and stained with propidium iodide (10 μg/ml) and RNase A (100 μg/ml) overnight. The cells were analyzed on a Becton Dickinson FACSCalibur system (San Jose, Calif.).

caspase-3, PARP = test: Western blot of active caspase-3 and PARP in T-Rex-293 lysates; format: cell-based, human
Experimental: Western blot analysis and immunofluorescence were performed as previously described (Perez, D., and White, E. J. Cell Biol. 141: 1255-1266 (1998); Perez, D., and White, E. Mol. Cell 6: 53-63 (2000)). The term “Western blot” refers to a method for identifying proteins in a complex mixture; proteins are separated electrophoretically in a gel medium; transferred from the gel to a protein binding sheet or membrane; and the sheet or membrane containing the separated proteins exposed to specific antibodies which bind to, locate, and enable visualization of protein(s) of interest. T-Rex-293 (mazF/pcDNA3) and T-Rex-293 (mazF/mazE) cells were harvested at 0, 24, 48 and 72 hr post-treatment with tetracycline or staurosporine by scraping and centrifugation. All cell pellets were lysed in 2× Laemmli buffer. Cell lysates were subjected to electrophoresis on a 15% SDS-PAGE gel and then transferred onto an Immobilon-P membrane (Millipore, Bedford, Mass.). The blot was incubated with following antibody: anti-active caspase-3 rabbit polyclonal antibody (Cell Signaling Technology, Beverly, Mass.), anti-BAX, anti-BAK rabbit polyclonal antibody (NT) (Upstate Biotechnology Inc., Lake Placid, N.Y.), anti-BID goat polyclonal antibody (R&D Systems, Inc, Minneapolis, Minn.), anti-Bim rabbit polyclonal antibody (Alexis Biochemical, San Diego, Calif.), anti-BCL-2 hamster monoclonal antibody (PharMingen, San Diego, Calif.), anti-BCL-XL mouse monoclonal antibody (Trevigen, Gaithersburg, Md.), anti-MCL-1 rabbit polyclonal antibody (Stressgen Biotechnologies, Victoria, British Columbia, Canada), anti-PARP mouse monoclonal antibody (PharMingen, San Diego, Calif.), anti-PUMA rabbit polyclonal antibody (Nelson, D. A., et al., Genes Dev. 18: 2095-2107 (2004)), anti-E1A monoclonal antibody; anti-actin monoclonal antibody (Oncogene Research Products); and anti-Xpress monoclonal antibody (Invitrogen). An antibody directed to human NBK/BIK was generated by expression of a GST-tagged human NBK/BIK fusion protein encoding an N-terminal 78-amino acid region in bacteria and immunization of rabbits (Cocalico). Western Blots were developed with horseradish peroxidase-conjugated secondary antibodies using the ECL system (Amersham-Pharmacia Biotech, Piscataway, N.J.).

T-Rex-293 cells [3] = test: trypan blue exclusion viability; format: cell-based, human; conditions: T-Rex-293 (mazF/pcDNA3), MazF expression induced
Experimental: The viability of T-Rex-293 cells was determined by trypan blue exclusion as previously described (Degenhardt, K., et al., J. Biol. Chem. 277: 14127-14134 (2002)). T-Rex-293 (mazF/pcDNA3) and T-Rex-293 (mazF/mazE) cells were cultured for 24 hr before tetracycline treatment and then incubated for 0, 24, 48 and 72 hr at 37° C. in the presence or absence of 10 μg/ml tetracycline. After treatment, cells were collected by centrifugation of the supernatant plus adherent cells, which were harvested by trypsinization. Cells were resuspended in 500 μl of fresh medium containing 0.1% trypan blue solution (Sigma, St. Louis, Mo.) and then counted on a hemocytometer to assess the number of dead blue cells and the total number of cells counted. As a control for apoptotic cell death, T-Rex-293 (mazF/mazE) cells were treated with 1 μM staurosporine (Sigma, St. Louis, Mo.) for same time periods concurrently with tetracycline treatment.

[4] = system: human GAPDH and β-actin mRNA; test: real-time RT-PCR quantification of mRNA levels in T-Rex-293 cells; format: cell-based; conditions: MazF induction for 72 hours, T-Rex-293 cells
Experimental: Northern blot analysis and real-time PCR (RT-PCR) was preformed as previously described (Zhang, Y., et al., Mol. Cell 12: 913-923 (2003); Cuconati, A., et al., Genes Dev. 17: 2922-2932 (2003)). Total RNA from tetracycline-treated (0, 24, 48 and 72 hr) or untreated (0, 24, 48 and 72 hr) T-Rex-293 (mazF/pcDNA3) and T-Rex-293 (mazF/mazE) cells for were isolated through the use of Trizol Reagent (Gibco, Carlsbad, Calif.). For Northern blot analysis, 10 μg of total RNA from each condition was subjected to formaldehyde-agarose gel electrophoresis followed by transfer onto GeneScreen Plus membrane (NEN Life Science Products, Boston, Mass.). The blot was hybridized with ^32P-labeled human GAPDH or β-actin cDNA. One hundred ng of total RNA was subjected to real time RT-PCR with the Taqman EZ-RT PCR kit (PE Applied Biosystems, Lincoln Centre Drive Foster City, Calif.) using recommended conditions provided by the vendor. […] Reactions were carried out in triplicate and the relative amount of human GAPDH and β-actin mRNA was calculated from the difference in fluorescence signal in the 24-, 48- and 72-hr samples compared with the corresponding 0 hr sample.

With “MazF: E. coli toxin; sequence specific endoribonuclease (mRNA interferase) cleaving single-stranded RNAs at ACA sequences; expressed from plasmid pcDNA4/TO/mazF” the “levels of 28S and 18S ribosomal RNA” value [1] was “did not change”, the sub-G1 peak (T-Rex-293 cells [2]) was 65.9% and the “cleaved PARP (Western blot)” value (caspase-3, PARP; T-Rex-293 (mazF/pcDNA3) treated with Tet for 48 hours) was “detected”. For the same substance, the “cleaved PARP levels (Western blot)” value (caspase-3, PARP; T-Rex-293 (mazF/pcDNA3), 72 hours post-induction of MazF) was “further increased”, the “processed active caspase-3 (Western blot)” value (caspase-3, PARP; extracts from T-Rex-293 (mazF/pcDNA3) cells treated with Tet) was “presence of the processed active form of caspase-3” and the “cell viability (trypan blue exclusion)” value (T-Rex-293 cells [3]) was “dropped strikingly”. For the same substance, the “decrease of both GAPDH and β-actin mRNAs (real-time RT-PCR)” value [4] was > 90%.
